Assay results published in US7935853B2, “Micronized composition of a 2,4-disubstituted phenol derivative” (priority 2008, dated 2011).

System: arthritis induced by injection of type II collagen in the mouse
Assay: Model of arthritis induced by type II collagen in mice (CIA), hind paw plethysmometry
Format: in vivo
Details: for Total hind paw volume (sum of both hind paws) / Oedema (difference in paw volume from basal values on day 21) in both hind paws: group mean n=10, listed as Group E; for percentage inhibition of oedema versus the control group: 10 mg/kg BID
Procedure: The aim of the study was to determine the anti-inflammatory activity of the test item in a model of arthritis induced by injection of type II collagen in the mouse (CIA) and to compare the activity of two different formulations: micronized and non-micronized.
Induction of arthritis was carried out by an initial exposure to type II bovine collagen by a subcutaneous injection at the base of the tail (induction phase).
After a recovery time of 21 days, animals received a booster injection and approximately 4-5 weeks after the first injection there was an immune response with arthritis appearing in the extremities in the majority of the cases.
Four experimental groups were used in the study with 10 animals in each group:
Group D: Positive control: FCA+vehicle B.I.D.
Group E: Micronized Test Item (Micro) 10 mg/kg B.I.D.
Group F: Non-Micronized test item 10 mg/kg B.I.D.
Group G: Reference item: Indomethacin 1 mg/kg Q.D.
The dose administered to groups E and F was 10 mg/kg.
The dose administered to group G was 1 mg/kg.
The doses of the test and reference items were expressed as mg/Kg of compound administered to each animal.
The test and reference items were administered in a solution of methylcellulose (0.25%: vehicle).
The positive control group received the vehicle (methylcellulose 0.25%).
The test and reference items, as well as the vehicle were administered orally at a dosing volume of 5 mls/kg.
The route of administration used was oral by use of an intragastric cannula.
On the day of start of the study each mouse was injected subcutaneously at the base of the tail with a first dose of 0.1 ml of an emulsion of bovine type II collagen (1 mg/mL) in Freund's Complete Adjuvant. Afterwards, on day 21 after this first injection, a second booster injection of type II collagen was administered to all animals. In this occasion the collagen suspension was done using Incomplete Freund's Adjuvant.
Coinciding with the second booster injection on day 21 treatment with the test or reference items was started to the corresponding animals.
Treatment with the test or reference items was carried out for 31 consecutive days (days 21-51 of the experimental period). Additionally, a recovery period was included at the end of the treatment period from day 52 to day 65 in order to evaluate the duration of any anti-inflammatory effect observed once dosing has been terminated.
The animals' hind paw volume was measured by plethysmometry one day before the 1st injection of collagen, again one day before the second (booster) collagen injection (basal values) and then daily after administration of test/reference item until the end of the study. During the recovery period at the end of the study, hind paw volume was measured three times per week.
Additionally the data was also represented graphically, depicting changes in total hind paw volume, as well as oedema (differences from basal (day 21) values).

[1] = day 22, oral treatment days 21-51
[2] = day 23, oral treatment days 21-51
[3] = day 26, oral treatment days 21-51
[4] = day 27, oral treatment days 21-51
[5] = day 29, oral treatment days 21-51
[6] = day 30, oral treatment days 21-51
[7] = day 33, oral treatment days 21-51
[8] = day 34, oral treatment days 21-51
[9] = day 35, oral treatment days 21-51
[10] = day 36, oral treatment days 21-51
[11] = day 37, oral treatment days 21-51
[12] = day 40, oral treatment days 21-51
[13] = day 41, oral treatment days 21-51
[14] = day 42, oral treatment days 21-51
[15] = day 43, oral treatment days 21-51
[16] = day 44, oral treatment days 21-51
[17] = day 47, oral treatment days 21-51
[18] = day 48, oral treatment days 21-51
[19] = day 49, oral treatment days 21-51
[20] = day 50, oral treatment days 21-51
[21] = day 51, oral treatment days 21-51
[22] = day 54, recovery period after treatment days 21-51
[23] = day 56, recovery period after treatment days 21-51
[24] = day 58, recovery period after treatment days 21-51
[25] = day 61, recovery period after treatment days 21-51
[26] = day 63, recovery period after treatment days 21-51
[27] = day 65, recovery period after treatment days 21-51

## Oc1c(I)cc(I)cc1I [Micronized, 2,4,6-triiodophenol]
Day 0, before collagen and treatment
  Total hind paw volume (sum of both hind paws): 0.169
Day 20, basal, before treatment
  Total hind paw volume (sum of both hind paws): 0.238
[1]
  Oedema (difference in paw volume from basal values on day 21) in both hind paws: 0.006
  Total hind paw volume (sum of both hind paws): 0.244
[2]
  Oedema (difference in paw volume from basal values on day 21) in both hind paws: −0.010
  Total hind paw volume (sum of both hind paws): 0.228
[3]
  Oedema (difference in paw volume from basal values on day 21) in both hind paws: 0.014
  Total hind paw volume (sum of both hind paws): 0.252
[4]
  Oedema (difference in paw volume from basal values on day 21) in both hind paws: −0.007
  Total hind paw volume (sum of both hind paws): 0.231
[5]
  Oedema (difference in paw volume from basal values on day 21) in both hind paws: −0.003
  Total hind paw volume (sum of both hind paws): 0.234
[6]
  Oedema (difference in paw volume from basal values on day 21) in both hind paws: −0.001
  Total hind paw volume (sum of both hind paws): 0.237
[7]
  Oedema (difference in paw volume from basal values on day 21) in both hind paws: −0.007
  Total hind paw volume (sum of both hind paws): 0.231
[8]
  Oedema (difference in paw volume from basal values on day 21) in both hind paws: −0.010
  Total hind paw volume (sum of both hind paws): 0.228
[9]
  Oedema (difference in paw volume from basal values on day 21) in both hind paws: 0.012
  Total hind paw volume (sum of both hind paws): 0.250
[10]
  Oedema (difference in paw volume from basal values on day 21) in both hind paws: 0.006
  Total hind paw volume (sum of both hind paws): 0.244
[11]
  Oedema (difference in paw volume from basal values on day 21) in both hind paws: 0.001
  Total hind paw volume (sum of both hind paws): 0.239
[12]
  Oedema (difference in paw volume from basal values on day 21) in both hind paws: 0.026
  Total hind paw volume (sum of both hind paws): 0.263
[13]
  Oedema (difference in paw volume from basal values on day 21) in both hind paws: 0.018
  Total hind paw volume (sum of both hind paws): 0.256
[14]
  Oedema (difference in paw volume from basal values on day 21) in both hind paws: 0.003
  Total hind paw volume (sum of both hind paws): 0.241
[15]
  Oedema (difference in paw volume from basal values on day 21) in both hind paws: 0.006
  Total hind paw volume (sum of both hind paws): 0.244
[16]
  Oedema (difference in paw volume from basal values on day 21) in both hind paws: 0.001
  Total hind paw volume (sum of both hind paws): 0.238
[17]
  Oedema (difference in paw volume from basal values on day 21) in both hind paws: 0.016
  Total hind paw volume (sum of both hind paws): 0.254
Day 48, P<0.05
  percentage inhibition of oedema versus the control group: 68.72±8.98%
[18]
  Oedema (difference in paw volume from basal values on day 21) in both hind paws: 0.016
  Total hind paw volume (sum of both hind paws): 0.254
[19]
  Oedema (difference in paw volume from basal values on day 21) in both hind paws: 0.023
  Total hind paw volume (sum of both hind paws): 0.261
Day 50, P<0.05
  percentage inhibition of oedema versus the control group: 70.56±9.88%
[20]
  Oedema (difference in paw volume from basal values on day 21) in both hind paws: 0.017
  Total hind paw volume (sum of both hind paws): 0.255
Day 51, highly significant
  percentage inhibition of oedema versus the control group: 77.59±9.08%
[21]
  Oedema (difference in paw volume from basal values on day 21) in both hind paws: 0.013
  Total hind paw volume (sum of both hind paws): 0.251
[22]
  Oedema (difference in paw volume from basal values on day 21) in both hind paws: 0.032
  Total hind paw volume (sum of both hind paws): 0.270
[23]
  Oedema (difference in paw volume from basal values on day 21) in both hind paws: 0.022
  Total hind paw volume (sum of both hind paws): 0.259
Day 56, P<0.05
  percentage inhibition of oedema versus the control group: 71.49±7.19%
[24]
  Oedema (difference in paw volume from basal values on day 21) in both hind paws: 0.030
  Total hind paw volume (sum of both hind paws): 0.268
Day 58, P<0.05
  percentage inhibition of oedema versus the control group: 66.29±5.13%
[25]
  Oedema (difference in paw volume from basal values on day 21) in both hind paws: 0.030
  Total hind paw volume (sum of both hind paws): 0.27
[26]
  Oedema (difference in paw volume from basal values on day 21) in both hind paws: 0.026
  Total hind paw volume (sum of both hind paws): 0.26
[27]
  Oedema (difference in paw volume from basal values on day 21) in both hind paws: 0.029
  Total hind paw volume (sum of both hind paws): 0.27
Day 65, P<0.05
  percentage inhibition of oedema versus the control group: 64.95±7.58%
